Test system: skin
Assay: 14-day cumulative irritation potential study (predictive occlusive patch test)
Source text: Occlusive patches with 100 micro liters of test product were applied to the skin daily for 14 days. Patches with sodium lauryl sulfate, 1.0% was used as a positive control while white petrolatum was used as a negative control.

Compound: CCCCCCCCCCCCOS(=O)(=O)[O-].[Na+] [Sodium lauryl sulfate, 1.0%, Sodium lauryl sulfate]
- Classification (irritation classification according to Berger and Bowman) (based on standardized cumulative irritation scores, 14 days, listed as Sodium lauryl sulfate 1.0%, sulfate): possibly mild
- Classification (irritation classification according to Berger and Bowman) (based on standardized cumulative irritation scores, 14 days, sulfate): Possibly mild in
- Standardized Cumulative Score (cumulative irritation score) (occlusive patches, 100 micro liters, daily for 14 days): 595.4

Compound: White Petrolatum
- Category (irritation classification of Berger and Bowman) (in vivo): I
- Classification (irritation classification according to Berger and Bowman) (in vivo): Mild material -
